# Laboratory results taken from patent US11001560B2, “Compound for blocking absorption of heavy metals by plants and a composition containing the same” (SICHUAN HUI TAI AGRICULTURAL TECHNOLOGY CO. LTD., priority 2018, dated 2021).
# Experiments:
# bok choy = assay: Potted experiment: effect of compound of formula I on reducing heavy metal (Cd, Pb) content in vegetables; assay type: in vivo
# Procedure: (§1) Potted experiments were carried out. The test soil was collected from the topsoil (0-20 cm) of farmland in the outskirts of Chengdu, Sichuan Province. The soil type was purple soil, with a total lead content of 1209.21 mg kg^−1 and a total cadmium content of 8.06 mg kg^−1. After the soil samples were collected, the plant residues were removed, air-dried, and passed through a 5 mm siever for later use. Test plants were bok choy and pepper. The sieved soil was filled into a tray, and 80 g of soil was filled in each tray. Before the planting, watering was carried out for 3 days to maintain the field water holding capacity of about 60%. Seeds of uniform size were selected. The surface of the seed was sterilized with ethanol: 30% H2O2 (V:V=1:1) for 3 minutes, and rinsed with sterile deionized water. The sterilized plant seeds were divided into two groups. One group was soaked in a deionized aqueous solution (5 g/L) of the compound of formula I for 4 hours, and was set as the experimental group. The other group was soaked in deionized water for the same time as the control group. The process was repeated 4 times. The seeds after soaking were sowed in a pot. After 1 week after emergence, 3 plants were left in each pot. The above soaking treatment was performed again, and the roots of the experimental group and the control group were soaked with 5 mL of an aqueous solution containing a compound of formula I and deionized water per pot, respectively. Watering the plant daily was necessary to ensure the necessary water for plant growth. Plants were harvested after 40 days of growth. The plants were removed from the pot and washed with deionized water. After harvesting, the plants were cut into roots and above ground parts along the junction of the rhizomes. The plants were put in an oven at 105° C. for 15 minutes, dried at 70° C., and weighed the dry weight of roots and above ground parts. The plant samples were grounded and digested by the nitric acid-perchloric acid method. The contents of heavy metals Pb and Cd in the plants were determined by atomic absorption spectrophotometer.
# pepper = assay: as above; assay type: in vivo
# Procedure: as §1
# [1] = experimental group (5 g/L compound of formula I) vs deionized water control
# [2] = seeds soaked 4 hours in 5 g/L aqueous solution, roots soaked again with 5 mL per pot, Pb/Cd-contaminated soil, harvested after 40 days, atomic absorption
smiles,measurement,setting,value
C/C=C/C(C[C@]1(O)CCNC[C@H](O)CCC2C=CCC(=O)C2C(=O)C/C=C/C=C/C[C@@H](O)C1)OC (stereo partly shown) [compound of formula I],"Cd and Pb concentrations in the above ground parts and below ground parts of bok choy, compared with the control group",bok choy; [1],significantly reduce
same,"Cd Concentration in Vegetables, Above Ground Parts, Bok Choy",bok choy; [2],2.08 ± 0.19 mg/L
same,"Cd Concentration in Vegetables, Below Ground Parts, Bok Choy",bok choy; [2],2.01 ± 0.33 mg/L
same,"Pb Concentration in Vegetables, Above Ground Parts, Bok Choy",bok choy; [2],1.51 ± 0.06 mg/L
same,"Pb Concentration in Vegetables, Below Ground Parts, Bok Choy",bok choy; [2],6.71 ± 1.08 mg/L
same,"Cd and Pb concentrations in the above ground parts and below ground parts of peppers, compared with the control group",pepper; [1],significantly reduce
same,"Cd Concentration in Vegetables, Above Ground Parts, Pepper",pepper; [2],2.89 ± 0.39 mg/L
same,"Cd Concentration in Vegetables, Below Ground Parts, Pepper",pepper; [2],4.58 ± 0.11 mg/L
same,"Pb Concentration in Vegetables, Above Ground Parts, Pepper",pepper; [2],1.32 ± 0.08 mg/L
same,"Pb Concentration in Vegetables, Below Ground Parts, Pepper",pepper; [2],5.11 ± 0.63 mg/L
